This is an account of results in patent publication US10105305B2, “Compositions and methods for promoting skin regeneration and hair growth” (THE JOHNS HOPKINS UNIVERSITY, priority 2014, dated 2018).

Data set [1] relates to NHEK. The experiment in a line: Flow cytometry of KRT15 and vimentin in keratinocytes. It counts as cell-based, human. An excerpt: Flow Cytometry. Keratinocytes and fibroblasts were fixed, permeabilized (BD Cytofix/Cytoperm kit), and stained with antibodies against human vimentin (BD Pharmingen clone RV202) and KRT15 (Abam clone LHK15) labeled with a chromophore preconjugated to Fab (Zenon mouse IgG labeling kit). Data was collected on a dual-laser flow cytometer (BD FACSCalibur) followed by FlowJo 10 (TreeStar) software analysis.

The test system of data set [2] is neo-natal human epidermal keratinocytes (NHEK). The experiment in a line: qRT-PCR gene expression in cultured keratinocytes (NHEK). It counts as cell-based. The procedure: Cell Culture. Neo-natal human epidermal keratinocytes (Lonza, Walkersville, Md.) or lab-isolated foreskin keratinocytes were cultured in keratinocyte medium with added supplements (KGMGOLD). Treatment with recombinant IL-6 protein (50 ng/mL), cucurbitacin I (10-100 nM), poly (I:C) (20 μg/mL) and TLR3 pharmacological inhibitor (80 μM; EMD Millipore, Billerica, Mass.) was applied in basal medium containing transferrin, hydrocortisone and antibiotics for up to 24 hours. After 24 hours, treatment medium was replaced with KGM-GOLD and isolation of RNA as indicated.
Nucleofection. Nucleofection with siGENOME SMARTpoo1 Human Tap63, TLR3, REL-A and siCONTROL siRNA duplex oligonucleotides (Dharmacon-ThermoFischer Scientific) was performed in NHEK using the Amaxa 4D-Nucleofector according to manufacturer's instruction. Plated cells were treated with recombinant human IL-6 (50 ng/mL) protein or poly(I:C) (20 μg/mL) for 24 hours. Afterwards, treatment medium was removed and replaced with KGMGOLD complete medium for the duration of the experiment. Levels of appropriate gene expression were assessed by qRT-PCR using inventoried TaqMan reagents in three independent experiments.
Quantitative Real-Time PCR (qRT-PCR). Mouse skin was harvested prior to wounding and throughout wounding as described (Nelson et al., 2013). RNA was isolated from NHEK with RNeasy Mini Kit (Qiagen, Valencia, Calif.) with DNase I digestion. qRT-PCR was performed for genes of interest and 18S or ribosomal protein, large PO (RPLP0) (housekeeping genes) using inventoried TaqMan reagents. Differences in gene expression were assessed by comparative ΔΔCT values with fold change calculations.
Background: In qPCR the cycle at which signal appears reflects the starting amount.

Data set [3] relates to normal nonwounded murine skin. The experiment in a line: Hair cycle in non-wounded murine skin after injection during telogen. To be noted: poly (I:C) 200 ng/mouse injected during telogen. It counts as in vivo.
For data set [4], the system named is β-catenin and GLI2 promoters. The experiment in a line: ChIP-qPCR of STAT3 occupancy at promoters in keratinocytes. It counts as cell-based, human. Particulars: poly (I:C) treated keratinocytes, N=5, p<0.05. As for the experimental part: Chromatin Immunoprecipitation. Poly(I:C) treated and control keratinocytes were crosslinked in 1% formaldehyde for 10 minutes, followed by addition of glycine for 5 minutes to quench unreacted formaldehyde. Cells were processed with EZ-ChIP Kit (Millipore) according to the manufacturer's instructions. Crosslinked protein-DNA complexes were captured with rabbit anti-Stat3 or normal rabbit IgG (sc-482X; sc-2027X, SCBT) antibodies. Real-time quantitative PCR was performed to determine the relative abundance of the promoter DNA sequence, associated with Stat3. Primers are detailed in Expanded Experimental Methods. Primers and graphics were designed based on ENCODE data (UCSC Genome Browser).
ChIP. The amplicon for Gli2 promoter site 4 encompasses TTCCAGGAA (SEQ ID NO:2) on chr2: 121621123-121621782 in the Encode database. It was amplified with the primer sequences: a) forward: 5 […]3′ (SEQ ID NO:3); b) reverse: 5′TCCTGTTCACATTGACGCC3′ (SEQ ID NO:4). The amplicon for β-catenin promoter site 4 encompasses TTCCTGGAA (SEQ ID NO:5) on chr3: 41264037-41264357 in the Encode database. This was amplified with the primer sequences: a) forward: 5′[…]3′ (SEQ ID NO:6); b) reverse: 5′[…]3′ (SEQ ID NO:7).

For data set [5], the system named is NHEK. The experiment in a line: Immunocytochemistry: keratinocyte morphology and beta-catenin nuclear localization. It counts as cell-based, human. Particulars: 72 hours after 24 hours of poly (I:C) 20 μg/mL. The procedure: […] Fixed cells were incubated with primary antibodies overnight, appropriate Alexa Fluor secondary antibodies and counterstained using VectaShield DAPI mounting medium (Vector Labs, Burlingame, Calif.). Slides were imaged at 60× magnification using the Nikon C1si True Spectral Imaging Confocal Laser Scanning Microscope system (Cell Imaging Core Facility, Sidney Kimmel Comprehensive Cancer Center, Johns Hopkins, Baltimore, Md.). Cell morphology and beta-catenin nuclear localization were quantified using the CellProfiler image analysis software (www.cellprofiler.org) (Carpenter et al., 2006) from confocal images of nuclei.

Data set [6] deals with murine skin wounds. The experiment in a line: Wound induced hair neogenesis (WIHN), regenerated hair follicles counted by CSLM. The data set is classed as in vivo, mouse. As for the experimental part: Wound Induced Hair Neogenesis (WIHN). All animal protocols are approved by the Johns Hopkins University Animal Care and Use Committee. C57BL/6J, B6; 129SF2/J and TLR3 null mice (B6; 129S1-Tlr3tm1Flv/J) were obtained from The Jackson Laboratory. Mixed strain (C57BL/6J×FVB/N×SJL/J) animals were provided by Dr. Jean Richa (University of Pennsylvania).
A 1 cm2 excisional full-thickness wounds to the level of skeletal muscle on the backs of 21-day old male and female mice was performed as previously described (Ito et al., 2007; Nelson et al., 2013). Numbers of regenerated hair follicles were quantified in the re-epithelialized skin by non-invasive confocal scanning laser microscopy (CSLM) as published (Fan et al., 2011). For all experiments, […] of “intervention” was injected into healing wound (under scab) or applied topically into open wound as shown in Table 1 below.
Treatments during WIHN assay. Recombinant mouse IL-6 protein (R&D Systems, Minneapolis, Minn.) and poly(I:C) (High Molecular Weight; InVivogen, San Diego, Calif.) was diluted in sterile PBS immediately prior to injection. Cucurbitacin I (Tocris Biosciences/R&D Systems, Minneapolis Minn.) was dissolved in 10% EtOH/PBS to a final concentration of 1 mg/mL prior to injection. RNase III enzyme (Life Technologies, Grand Island N.Y.) was diluted in supplied reaction buffer

The conditions of data set [7]: in solution; cited from earlier work.
Where [8] appears, read: 72 hours after 24 hours of poly (I:C) 20 μg/mL, NHEK.
[9] abbreviates: poly (I:C) 20 μg/mL treatment, NHEK.
Where [10] appears, read: poly (I:C) 20 μg/mL, NHEK, 24 hours.

“Also recorded” adds a separate entry of the source.

For “Polyinosinic:polycytidylic acid [poly (I:C)]”, in data set [1] (setting [8]), the “percentage of KRT15 expressing cells by FACS” value is listed as “nearly doubled”. The “vimentin protein expression by flow cytometry” value in data set [1] (poly (I:C) treated NHEK vs control keratinocytes and fibroblasts) is “intermediate between that of control keratinocytes and fibroblasts”. Also, the “KRT15 mRNA expression” value in data set [2] (setting [8]) is “significantly increased”. Moreover, the “vimentin (VIM) mRNA expression” value in data set [2] (following poly (I:C) 20 μg/mL for 24 hours, indicated time points, NHEK) is “continued to increase in a time-dependent fashion”. For the same substance, in data set [2] (setting [9]), the EDAR expression result was “increased”, the GLI1 expression entry is on record as “increased”, the LEF1 expression result is “up-regulated” and the SHH expression entry is listed as “increased”. In addition, in data set [2] (poly (I:C) 20 μg/mL, NHEK, 6 hours), the “induction of IL-6 mRNA” value is reported as “greater than 30 fold”. In data set [2] (setting [10]), the CBX4 expression result is listed as “increase”, the KRT1 expression entry is listed as “nearly complete loss” and the “filaggrin (FLG) expression” value is recorded as “nearly complete loss”. For the same substance, the E-cadherin epithelial marker entry in data set [2] (same conditions as vimentin, poly (I:C) treated NHEK) is given as “not reduced”. Further, the “effect on hair cycle (anagen activation) in nonwounded skin” value in data set [3] is recorded as “does not affect the hair cycle; also recorded: no activation of anagen”. Also, in data set [4], the “STAT3 occupation of GLI2 promoter” value is recorded as “significant increase” and the “STAT3 occupation of β-catenin promoter” value is “significant increase”. Also, in data set [5], the “amount of nuclear β-catenin” value was “doubled”; the keratinocyte length-width ratio entry is on record as “near doubling”; the keratinocyte morphology entry was “long, spindle-like morphology”. The “stimulatory effect on WIHN in TLR3 null mice” value in data set [6] (TLR3 KO mice, poly (I:C) 200 ng vs PBS, CSLM) was “abrogated”. Further, the “number of regenerated follicles (WIHN)” value in data set [6] (wt mice, single poly (I:C) 200 ng injected into wound at WD3 vs PBS, CSLM ~WD20-24) is recorded as “greater number of regenerated follicles”.
With “LL-37: 37 amino acid cathelicidin peptide, SEQ ID NO:1, residues 134-170 of hCAP18”, the “resistance to proteolytic degradation” value in data set [7] is “significantly resistant to proteolytic degradation in solution”.
